The compounds below were run against T1, human Nav1.1 (Homo sapiens, UniProt P35498) (assay: Amplification of Nav1.1-derived voltage-gated sodium current (Nav1.1 current), automated patch clamp (Test 1)). Details: Concentration for evaluation 1 μM; HEK293 cell line stably expressing human Nav1.1.
T1 construct: host or cells: HEK293
Type: cell-based
Method: Test 1: Evaluation of the Amplification of Nav1.1-Derived Voltage-Gated Sodium Current (Nav1.1 Current) by Using a Cell Line Stably Expressing Human Nav1.1
(1) Preparation of Test Compound Solution
Test compounds were prepared by dissolving in DMSO at 200 times of the concentration at evaluation, and diluting the obtained solution to twice the concentration of evaluation with an extracellular fluid (135 mmol/L NaCl, 4 mmol/L KCl, 1 mmol/L MgCl2, 5 mmol/L CaCl2, 5 mmol/L Glucose, 10 mmol/L HEPES).
(2) Induction and Measurement of Nav1.1 Current
A HEK293 cell line stably expressing human Nav1.1 (cat #CYL3009, Eurofins DiscoverX Products, LLC, Human Embryonic Kidney 293) was purchased, and used in the present test. Nav1.1 current was induced by stimulating Ramp wave voltage. Detection of current which accompanied with the stimulation of voltage was carried out by a patch-clamp voltage-clamp method using HTS automated patch clamp system (SynchroPatch 768PE, Nanion Technologies GmbH, Germany). Only cells with more than 500 pA of voltage-gated sodium channel current were used for the evaluation of the activity of compounds on Nav1.1 current because there was the possibility that currents derived from endogenous voltage-gated sodium channels accounted for large proportion in cells with less than 500 pA of voltage-gated sodium channel current which was induced by stimulating Ramp wave voltage.
(3) Pharmacological Effect on Nav1.1 Current
The effect of test compounds on the amplification of Nav1.1-derived voltage-gated sodium current was evaluated by using a cell line stably expressing human Nav1.1 and HTS automated patch clamp system. In other words, test compounds were added in an extracellular fluid containing 1% DMSO, and evaluated as a change of the peak value of Nav1.1 current and the area under the curve (AUC).
(4) Method for Pharmacological Evaluation
The Nav1.1 current amplification rates of test compounds were calculated by the following formula:
Nav1.1 current amplification rate (%)=100×[the peak value of Nav1.1 current or the area under the curve after the addition of test compounds]/[the peak value of Nav1.1 current or the area under the curve before the addition of test compounds]−100

SMILES	Nav1.1 current amplification rate (%)
CO[C@H]1CCN(Cc2cccc3c2CCN3C(=O)Cn2nc(C3=CCC(C)CC3)ccc2=O)C1 (stereo partly drawn) [Example 272]	127
CO[C@@H]1CCN(Cc2cccc3c2CCN3C(=O)Cn2nc(C3=CCC(C)CC3)ccc2=O)C1 (stereo partly drawn) [Example 273]	77
COC1CN(Cc2cccc3c2CCN3C(=O)Cn2nc(C3=CCC(C)CC3)ccc2=O)C1 (stereo not drawn) [Example 274]	60
COCCN(C)Cc1cccc2c1CCN2C(=O)Cn1nc(C2=CCC(C)CC2)ccc1=O (stereo not drawn) [Example 275]	46
CC1CC=C(c2ccc(=O)n(CC(=O)N3CCc4c(CN(C)C5COC5)cccc43)n2)CC1 (stereo not drawn) [Example 276]	207
CC1CC=C(c2ccc(=O)n(CC(=O)N3CCc4c3cccc4C(C)(C)O)n2)CC1 (stereo not drawn) [Example 277]	210
CC1CC=C(c2ccc(=O)n(CC(=O)N3CCc4c3ccnc4C3=CCN(C(=O)OC(C)(C)C)C3)n2)CC1 (stereo not drawn) [Example 280]	10
CC1CC=C(c2ccc(=O)n(CC(=O)N3CCc4c(CN5CCCCC5)cccc43)n2)CC1 (stereo not drawn) [Example 282]	26
CC1CC=C(c2ccc(=O)n(CC(=O)N3CCc4c3ccnc4C3=CCN(C)C3)n2)CC1 (stereo not drawn) [Example 283]	15
CC1CC=C(c2ccc(=O)n(CC(=O)N3CCc4c3ccnc4C3=CCOC3)n2)CC1 (stereo not drawn) [Example 284]	91
CC1CC=C(c2ccc(=O)n(CC(=O)N3CCc4c3ccnc4-c3cn[nH]c3)n2)CC1 (stereo not drawn) [Example 285]	113
CC1CC=C(c2ccc(=O)n(CC(=O)N3CCc4c(Cn5ccnc5)cccc43)n2)CC1 (stereo not drawn) [Example 286]	848
CC1CC=C(c2ccc(=O)n(CC(=O)N3CCc4c(CN5CC=CC5)cccc43)n2)CC1 (stereo not drawn) [Example 287]	73
Cc1cn(Cc2cccc3c2CCN3C(=O)Cn2nc(C3=CCC(C)CC3)ccc2=O)cn1 (stereo not drawn) [Example 288]	115
CC1CC=C(c2ccc(=O)n(CC(=O)N3CCc4c(-c5cc[nH]n5)ccc(F)c43)n2)CC1 (stereo not drawn) [Example 292]	46
CC1CC=C(c2ccc(=O)n(CC(=O)N3CCc4c(Cn5cncn5)cccc43)n2)CC1 (stereo not drawn) [Example 294]	271
CC1CC=C(c2ccc(=O)n(CC(=O)N3CCc4c3ccc(F)c4-c3ccnnc3)n2)CC1 (stereo not drawn) [Example 295]	95
CC1CC=C(c2ccc(=O)n(CC(=O)N3CCc4c3ccnc4C3=CCOCC3)n2)CC1 (stereo not drawn) [Example 296]	87
CC1CC=C(c2ccc(=O)n(CC(=O)N3CCc4c3ccnc4-c3cccnc3)n2)CC1 (stereo not drawn) [Example 297]	151
CC1CC=C(c2ccc(=O)n(CC(=O)N3CCc4cc(-c5cccnc5)ccc43)n2)CC1 (stereo not drawn) [Example 298]	51

Same assay, conditions: Concentration for evaluation 3 μM; HEK293 cell line stably expressing human Nav1.1

SMILES	Nav1.1 current amplification rate (%)
CC1CC=C(c2ccc(=O)n(CC(=O)N3CC=C(c4ccccc4)CC3)n2)CC1 (stereo not drawn) [Example 257]	45
CC1CC=C(c2ccc(=O)n(CC(=O)N3CCN(c4ccccc4)CC3)n2)CC1 (stereo not drawn) [Example 258]	79
Cc1ncc(-c2cccc3c2CCN3C(=O)Cn2nc(C3=CCC(C)CC3)ccc2=O)cn1 (stereo not drawn) [Example 264]	597
CC1CC=C(c2ccc(=O)n(CC(=O)N3CCc4c(C5=CCNC5)cccc43)n2)CC1 (stereo not drawn) [Example 265]	110
CC1CC=C(c2ccc(=O)n(CC(=O)N3CCc4c(CO)cccc43)n2)CC1 (stereo not drawn) [Example 266]	108
CC1CC=C(c2ccc(=O)n(CC(=O)N3CCc4c(C5=CCN(C)C5)cccc43)n2)CC1 (stereo not drawn) [Example 267]	231
CC1CC=C(c2ccc(=O)n(CC(=O)N3CCc4c(C5CCNC5)cccc43)n2)CC1 (stereo not drawn) [Example 268]	55
CC1CC=C(c2ccc(=O)n(CC(=O)N3CCc4c(C5CCN(C)C5)cccc43)n2)CC1 (stereo not drawn) [Example 269]	127
CC1CC=C(c2ccc(=O)n(CC(=O)N3CCc4c(CN5CCOCC5)cccc43)n2)CC1 (stereo not drawn) [Example 270]	481
CC1CC=C(c2ccc(=O)n(CC(=O)N3CCc4c(CN5CCCC5)cccc43)n2)CC1 (stereo not drawn) [Example 271]	48
CC1CC=C(c2ccc(=O)n(CC(=O)N3CCOc4c(-c5cn[nH]c5)cccc43)n2)CC1 (stereo not drawn) [Example 290]	94
CC1CC=C(c2ccc(=O)n(CC(=O)N3CCc4c(C5CNC5)cccc43)n2)CC1 (stereo not drawn) [Example 299]	6
CC1CC=C(c2ccc(=O)n(CC(=O)N3CCc4c(C5CN(C)C5)cccc43)n2)CC1 (stereo not drawn) [Example 300]	140
CC1CC=C(c2ccc(=O)n(CC(=O)N3CCc4c(C5CN(C6COC6)C5)cccc43)n2)CC1 (stereo not drawn) [Example 301]	410
CCN1CC(c2cccc3c2CCN3C(=O)Cn2nc(C3=CCC(C)CC3)ccc2=O)C1 (stereo not drawn) [Example 302]	104
CC1CC=C(c2ccc(=O)n(CC(=O)N3CCc4c(C5CN(CCO)C5)cccc43)n2)CC1 (stereo not drawn) [Example 303]	67
CC1CC=C(c2ccc(=O)n(CC(=O)N3CCc4c(C5CN(C6CCOC6)C5)cccc43)n2)CC1 (stereo not drawn) [Example 305]	314
CC1CC=C(c2ccc(=O)n(CC(=O)N3CCc4c(C5CN(C(=O)C(C)(C)O)C5)cccc43)n2)CC1 (stereo not drawn) [Example 306]	532
CC1CC=C(c2ccc(=O)n(CC(=O)N3CCc4c(OCC(C)(C)O)cccc43)n2)CC1 (stereo not drawn) [Example 307]	320

Same assay, conditions: Concentration for evaluation 10 μM; HEK293 cell line stably expressing human Nav1.1

SMILES	Nav1.1 current amplification rate (%)
CC1CC=C(c2ccc(=O)n(CC(=O)Nc3cccc4nccn34)n2)CC1 (stereo not drawn) [Example 255]	32
CC1CC=C(c2ccc(=O)n(CC(=O)N3CCC(c4ccccc4)CC3)n2)CC1 (stereo not drawn) [Example 256]	36
CC1CC=C(c2ccc(=O)n(CC(=O)N3CCC(c4ccncc4)CC3)n2)CC1 (stereo not drawn) [Example 259]	71
CC1CC=C(c2ccc(=O)n(CC(=O)N3CCC(c4ccccn4)CC3)n2)CC1 (stereo not drawn) [Example 260]	13
CC1CC=C(c2ccc(=O)n(CC(=O)N3CCN(c4ccncc4)CC3)n2)CC1 (stereo not drawn) [Example 261]	60
CC1CC=C(c2ccc(=O)n(CC(=O)N3CCC(c4cccnc4)CC3)n2)CC1 (stereo not drawn) [Example 262]	124
CC1CC=C(c2ccc(=O)n(CC(=O)N3CCN(c4cncc(F)c4)CC3)n2)CC1 (stereo not drawn) [Example 263]	342
CC1CC=C(c2ccc(=O)n(CC(=O)N3CCc4c3ccnc4C3=CCNC3)n2)CC1 (stereo not drawn) [Example 281]	40
CC1CC=C(c2ccc(=O)n(CC(=O)N3CCc4c(C5CN(C(C)C)C5)cccc43)n2)CC1 (stereo not drawn) [Example 304]	167

Same assay, conditions: Concentration for evaluation 50 μM; HEK293 cell line stably expressing human Nav1.1

SMILES	Nav1.1 current amplification rate (%)
CC1CC=C(c2ccc(=O)n(CC(=O)N3CCc4nc(-c5cn[nH]c5)ccc43)n2)CC1 (stereo not drawn) [Example 289]	51
CC1CC=C(c2ccc(=O)n(CC(=O)N3CCc4c(-c5cc[nH]n5)ccnc43)n2)CC1 (stereo not drawn) [Example 291]	212
CC1CC=C(c2ccc(=O)n(CC(=O)N3CCc4c(C=C5CCNCC5)cccc43)n2)CC1 (stereo not drawn) [Example 293]	55

Reference: US20230109839A1, “THERAPEUTIC AGENT FOR TAUOPATHIES” (SUMITOMO PHARMA CO., LTD., priority 2020, published 2023)
